# In patent US8334286B2, “Substituted pyrrolo[1,2-A] pyrazines, compositions containing these, processes of making these, and uses thereof” (Neurotune AG, priority 2008, dated 2012):
# Tests used:
# [1] = tested on: paclitaxel-induced hyperalgesia; assay: Paclitaxel-induced hyperalgesia in the rat (paw-pressure test); type: in vivo; settings: PCT-treated rats, 3 mg/kg i.v., mean ± S.E.M.
# Method: In all methods, paw mechanical sensitivity was determined using either the paw pressure test or the incapacitance test. The paw pressure test utilizes a Randall & Selitto apparatus, exerting a force that increases at constant rate (32 g/s). The stimulus at which rats withdrawn the paw was evaluated before and at different times after treatment. Results represent the mean of mechanical thresholds expressed as grams. To avoid any possible damage to the animal paw the maximum applied force was fixed at 240 g. Peripheral neuropathy is induced by repeated administration of vincristine, paclitaxel or oxaliplatin to adult male Sprague-Dawley rats (150-200 g, supplier Harlan). The following protocols were used respectively: • Vincristine: the drug was injected by intravenous route at the dose of 150 μg/kg. The treatment was performed every 2 days, for 5 times, until a cumulative dose of 750 μg/kg was reached. Paw pressure test was performed 4 days after the last injection (Marchand F. et al. 2003, Brain Res. 980:117-120). • Paclitaxel: paclitaxel (PCT) neuropathy was induced by intraperitoneal administration of 0.5 mg/kg once a day, on days 1, 3, 5 and 8. Cumulative paclitaxel dose was 2 mg/kg. The pharmacological test was performed 14-18 days after the last paclitaxel injection (Polomano R. C. et al. 2001, Pain 94:293-304). • Oxaliplatin: 2.4 mg/kg were injected by intraperitoneal route for 5 consecutive days followed by 2 days suspension (one cicle). A total of 3 cycles was performed, reaching a cumulative dose of 36 mg/kg (Cavaletti G. 2001, Eur. J. Cancer 37:2457-2463). The test was performed 48 h after the last oxaliplatin injection. 2. Osteoarthritic Pain
# MIA-induced hyperalgesia [2] = assay: MIA-induced hyperalgesia in the rat (paw-pressure test), osteoarthritic pain; type: in vivo; settings: MIA-treated rats, mean ± S.E.M.
# Method: In all methods, paw mechanical sensitivity was determined using either the paw pressure test or the incapacitance test. The paw pressure test utilizes a Randall & Selitto apparatus, exerting a force that increases at constant rate (32 g/s). The stimulus at which rats withdrawn the paw was evaluated before and at different times after treatment. Results represent the mean of mechanical thresholds expressed as grams. To avoid any possible damage to the animal paw the maximum applied force was fixed at 240 g. Osteoarthritis was induced by a single administration of 2 mg (in a volume of 25 μl) of monosodium iodoacetate (MIA) into the left knee joint of anaesthetized rats (male adult Sprague Dawley rats, 150-200 g, supplier Harlan) (Fernihough J. 2004, Pain 112:83-93). This treatment induces the progressive degeneration of the joint and the development of hyperalgesia, mimicking at the histological and behavioral levels what observed in humans. Pharmacological test was performed 7 days after treatment.
# MIA-induced hyperalgesia [3] = assay: MIA-induced hyperalgesia in the rat (incapacitance test), osteoarthritic pain; type: in vivo; settings: MIA-treated rats, grams of the right paw, mean ± S.E.M.
# Method: In all methods, paw mechanical sensitivity was determined using either the paw pressure test or the incapacitance test. […] Osteoarthritis was induced by a single administration of 2 mg (in a volume of 25 μl) of monosodium iodoacetate (MIA) into the left knee joint of anaesthetized rats (male adult Sprague Dawley rats, 150-200 g, supplier Harlan) (Fernihough J. 2004, Pain 112:83-93). This treatment induces the progressive degeneration of the joint and the development of hyperalgesia, mimicking at the histological and behavioral levels what observed in humans. Pharmacological test was performed 7 days after treatment.
# [4] = 3 mg/kg i.v., 15 min after treatment
# [5] = 3 mg/kg i.v., 30 min after treatment
# [6] = 3 mg/kg i.v., 45 min after treatment
# [7] = before treatment (basal), group 3 mg/kg i.v.
smiles,measurement,setting,value
"O=C1CC[C@@H]2CN(S(=O)(=O)c3ccccc3C(F)(F)F)CCN12 [Example 8, (R)-(+)-2-(2-(trifluoromethyl)phenylsulfonyl) hexahydropyrrolo [1,2-a]pyrazin-6(7H)-one]","Mechanical threshold (g), After Treatment 15 min",[1]; 15 min after treatment,42.2 ± 3.0 g
same,"Mechanical threshold (g), After Treatment 30 min",[1]; 30 min after treatment,39.3 ± 3.2 g
same,"Mechanical threshold (g), After Treatment 45 min",[1]; 45 min after treatment,37.5 ± 3.2 g
same,"Mechanical threshold (g), After Treatment 15 min",MIA-induced hyperalgesia [2]; [4],59.4 ± 1.6 g
same,"Mechanical threshold (g), After Treatment 30 min",MIA-induced hyperalgesia [2]; [5],63.8 ± 2.6 g
same,"Mechanical threshold (g), After Treatment 45 min",MIA-induced hyperalgesia [2]; [6],50.2 ± 3.7 g
same,"Mechanical threshold (g), Before Treatment basal",MIA-induced hyperalgesia [2]; [7],22.6 ± 2.0 g
same,melting point,,157 to 158 °C
same,Weight borne on right hind paw,MIA-induced hyperalgesia [3]; [4],119.0 ± 7.5 g
same,Weight borne on right hind paw,MIA-induced hyperalgesia [3]; [5],113.5 ± 6.6 g
same,Weight borne on right hind paw,MIA-induced hyperalgesia [3]; [6],72.9 ± 6.3 g
same,Weight borne on right hind paw,MIA-induced hyperalgesia [3]; [7],40.4 ± 8.2 g
